Reference: US11014911B2, “CDK2 inhibitors” (Pfizer Inc., priority 2019, dated 2021)

Tests used:
GSK3β (H350L) = GSK3β (H350L) (Homo sapiens (Human), UniProt P49841); settings: read-out: GSK3β Ki
Experimental: The assay was initiated with the addition of ATP, following 15 minutes pre-incubation of enzyme and inhibitor at room temperature in the reaction mixture. The reaction was stopped after 30 minutes at room temperature by the addition of 50 μL of 80 mM EDTA.

[1] = molecular target: CDK2/Cyclin E1 full length (Homo sapiens (Human), UniProt P24941); assay: CDK2/Cyclin E1 full length mobility shift assay; assay type: biochemical

Sequence of GSK3β (H350L) (P49841 whole entry, stated change not applied): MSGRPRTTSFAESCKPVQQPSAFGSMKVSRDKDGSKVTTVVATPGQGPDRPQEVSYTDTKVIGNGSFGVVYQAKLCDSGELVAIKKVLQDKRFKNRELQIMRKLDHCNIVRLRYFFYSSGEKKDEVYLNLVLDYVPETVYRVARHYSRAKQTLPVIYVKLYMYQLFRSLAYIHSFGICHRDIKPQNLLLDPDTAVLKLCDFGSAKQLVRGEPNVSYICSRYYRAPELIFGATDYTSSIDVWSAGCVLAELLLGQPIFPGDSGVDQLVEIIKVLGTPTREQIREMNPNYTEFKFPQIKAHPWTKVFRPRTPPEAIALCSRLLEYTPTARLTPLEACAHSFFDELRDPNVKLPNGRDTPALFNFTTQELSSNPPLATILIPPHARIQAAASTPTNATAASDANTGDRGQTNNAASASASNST

Structure (SMILES)	Ki (GSK3β (H350L)) [nM]	Ki [1] [nM]
COc1ccc(CC(=O)Nc2cc([C@@H]3CC[C@H](OC(=O)N[C@H]4CC[C@@H](O)CC4)C3)[nH]n2)nc1 [Example 554, (1S,3R)-3-(3-{[(5-methoxypyridin-2-yl)acetyl]amino}-1H-pyrazol-5-yl)cyclopentyl (cis-4-hydroxycyclohexyl)carbamate]	5.11	1.76
CC[C@H](C)NC(=O)O[C@@H]1CC[C@H](c2cc(NC(=O)Cc3cnc(C)s3)n[nH]2)C1 [Example 33]	26.4	0.17
CC[C@@H](C)NC(=O)O[C@@H]1CC[C@H](c2cc(NC(=O)Cc3ccno3)n[nH]2)C1 [Example 322, (1R,3S)-3-{3-[(1,2-oxazol-5-ylacetyl)amino]-1H-pyrazol-5-yl}cyclopentyl (2R)-butan-2-ylcarbamate]	81.2	0.93
Cn1cc(CC(=O)Nc2cc([C@H]3CC[C@@H](OC(=O)NCCC(F)(F)F)C3)[nH]n2)cn1 [Example 216, (1R,3S)-3-(3-{[(1-methyl-1H-pyrazol-4-yl)acetyl]amino}-1H-pyrazol-5-yl)cyclopentyl (3,3,3-trifluoropropyl)carbamate]	28.2	0.86
CC[C@H](C)NC(=O)O[C@@H]1CC[C@H](c2cc(NC(=O)c3cnnn3C)n[nH]2)C1 [Example 4, (1R,3S)-3-(3-{[(1-methyl-1H-1,2,3-triazol-5-yl)carbonyl]amino}-1H-pyrazol-5-yl)cyclopentyl (2S)-butan-2-ylcarbamate]	110	0.1
Cc1ccc(CC(=O)Nc2cc([C@@H]3CC[C@H](OC(=O)N[C@H]4CC[C@H](O)CC4)C3)[nH]n2)cn1 [Example 548, (1S,3R)-3-(3-{[(6-methylpyridin-3-yl)acetyl]amino}-1H-pyrazol-5-yl)cyclopentyl (trans-4-hydroxycyclohexyl)carbamate]	2.1	0.39

Now from value to molecule:

Ki (GSK3β (H350L)) [nM]	Ki [1] [nM]	Structure (SMILES)
11.1	0.16	Cc1ncc(CC(=O)Nc2cc([C@H]3CC[C@@H](OC(=O)NC(C)(C)C)C3)[nH]n2)s1 [Example 113]
14.9	0.28	Cc1cc(CC(=O)Nc2cc([C@H]3CC[C@@H](OC(=O)N4[C@@H](C)CC[C@@H]4C)C3)[nH]n2)on1 [Example 638, (1R,3S)-3-(3-{[(3-methyl-1,2-oxazol-5-yl)acetyl]amino}-1H-pyrazol-5-yl)cyclopentyl (2S,5S)-2,5-dimethylpyrrolidine-1-carboxylate]
28.8	1.26	O=C(Cc1cc(F)cc(F)c1)Nc1cc([C@H]2CC[C@@H](OC(=O)NCC(F)F)C2)[nH]n1 [Example 253, (1R,3S)-3-(3-{[(3,5-difluorophenyl)acetyl]amino}-1H-pyrazol-5-yl)cyclopentyl (2,2-difluoroethyl)carbamate]
2.76	0.51	COc1ccc(CC(=O)Nc2cc([C@H]3CC[C@@H](OC(=O)N4C[C@@](C)(O)[C@@H]4C)C3)[nH]n2)cn1 [Example 627, (1R,3S)-3-(3-{[(6-methoxypyridin-3-yl)acetyl]amino}-1H-pyrazol-5-yl)cyclopentyl (2S,3R)-3-hydroxy-2,3-dimethylazetidine-1-carboxylate]
9.64	1.03	CCCNC(=O)O[C@H]1CC[C@@H](c2cc(NC(=O)Cc3ccc(OC)cn3)n[nH]2)C1 [Example 186, (1S,3R)-3-(3-{[(5-methoxypyridin-2-yl)acetyl]amino}-1H-pyrazol-5-yl)cyclopentyl propylcarbamate]
10.3	1.37	Cc1cc(CC(=O)Nc2cc([C@H]3CC[C@@H](OC(=O)N4CCOC[C@@H]4C)C3)[nH]n2)on1 [Example 642, (1R,3S)-3-(3-{[(3-methyl-1,2-oxazol-5-yl)acetyl]amino}-1H-pyrazol-5-yl)cyclopentyl (3S)-3-methylmorpholine-4-carboxylate]
58.4	0.82	CC[C@H](C)NC(=O)O[C@@H]1CC[C@H](c2cc(NC(=O)Cc3sc(C)nc3C)n[nH]2)C1 [Example 352, (1R,3S)-3-(3-{[(2,4-dimethyl-1,3-thiazol-5-yl)acetyl]amino}-1H-pyrazol-5-yl)cyclopentyl (2S)-butan-2-ylcarbamate]
